Data reported in paper PMC6030096, “Synergy of Physico-chemical and Biological Experiments for Developing a Cyclooxygenase-2 Inhibitor” (Scientific Reports, 2018).

Experiments:
COX-1 = biological target: T1, COX-1 (Homo sapiens, UniProt P23219); test: Human whole blood assay for COX-1 (A23187 stimulated TxB2); assay type: cell-based; details: final conc 1 µM, A23187 50 µM
T1 construct: endogenous in cells; host or cells: human whole blood (heparinized, venipuncture)
Excerpt: The use of human blood for the whole blood assay was duly approved by the institutional ethical committee of the University for human subjects. Production of prostaglandin PGE2 during lipopolysaccharide (LPS) stimulated whole blood was used to quantify COX-2 inhibitory activity whereas calcium ionophore (A23187) stimulated thromboxane (TxB2) production was used to measure COX-1 inhibitory activity of the compounds.
Approval for the use of human blood was taken from the institutional ethical committee of Guru Nanak Dev University Amritsar and informed consent was obtained from the subject[32],[33]. All experiments were performed in accordance with the relevant guidelines and regulations. By venipuncture, the blood sample was collected in heparinized tubes. […] Each sample in duplicate was assayed for TxB2 (the breakdown product of TxA2) using TXB2 Express ELISA kit (Cayman Chemicals, Ann Arbor, MI) by the reported protocol.

COX-2 = biological target: T2, COX-2 (Homo sapiens, UniProt P35354); test: COX-2 enzyme immunoassay (Cayman inhibitor screening kit); assay type: biochemical; parameters: purchased Cayman Chemical Co. 560131; details: for IC50: enzyme immunoassay, average of three experiments; for Selectivity index: SI = IC50 (COX-1)/ IC50 (COX-2)
T2 sequence (P35354 18-604): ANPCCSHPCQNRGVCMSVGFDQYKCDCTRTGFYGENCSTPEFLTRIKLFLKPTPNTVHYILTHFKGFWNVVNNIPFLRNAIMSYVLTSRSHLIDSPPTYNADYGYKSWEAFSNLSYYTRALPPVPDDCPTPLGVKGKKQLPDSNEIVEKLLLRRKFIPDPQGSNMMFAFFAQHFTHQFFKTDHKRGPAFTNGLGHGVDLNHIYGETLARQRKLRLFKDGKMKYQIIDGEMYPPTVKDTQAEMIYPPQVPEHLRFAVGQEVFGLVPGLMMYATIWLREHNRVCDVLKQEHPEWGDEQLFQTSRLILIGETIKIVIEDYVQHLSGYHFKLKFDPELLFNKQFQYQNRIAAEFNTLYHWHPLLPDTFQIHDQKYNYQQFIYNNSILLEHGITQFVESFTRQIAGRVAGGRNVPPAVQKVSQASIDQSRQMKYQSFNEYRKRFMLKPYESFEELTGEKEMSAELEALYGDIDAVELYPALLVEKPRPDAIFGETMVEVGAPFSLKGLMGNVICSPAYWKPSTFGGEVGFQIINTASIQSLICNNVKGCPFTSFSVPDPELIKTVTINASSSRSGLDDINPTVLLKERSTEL
Method: Principally, the catalytic activity of COX-1/2 is slowed down in the presence of its inhibitor and quantitatively, it is inversely proportional to the amount of prostaglandin produced in the presence of inhibitor.
The enzyme inhibition screening assay kits for COX-1/2 and 5-LOX with item no. […] The 100% initial activity tubes for the two enzymes contained 10 µL heme and 10 µL of the enzyme in 160 µL reaction buffer. Then 10 µL inhibitor (compound of above mentioned concentrations) was added to the inhibitor tubes for the two enzymes and 10 µL of vehicle (DMSO) was added to 100% initial activity and background tubes. All the tubes were incubated for 10 min at 37 °C and the reaction was started by adding 10 µL arachidonic acid to all the reaction tubes. After incubation of the reaction vials for 2 min at 37 °C, the enzyme catalysis was stopped by adding 30 µL saturated stannous chloride solution to each test tube and solutions were kept at 0–4 °C. For EIA (enzyme immunoassay) procedure: the EIA buffers and assay specific reagents were prepared as written in the manual. In the COX dilutions, two test tubes labelled as BC1 and BC2 were taken to prepare background samples. Each tube contained 990 µL of EIA buffer and 10 µL of background COX-1 for BC1 and 10 µL of background COX-2 for BC2. The samples for 100% initial activity were diluted in three vials labelled IA1, IA2 and IA3 for each enzyme. IA1 contained 990 µL EIA buffer and 10 µL enzyme, IA2 has 950 µL buffer and 50 µL solution of IA1 (1:2000 dilution of original sample) and IA3 carried 500 µL of buffer and 500 µL of IA2 solution (1:4000 dilution of original sample). Each solution was thoroughly mixed. Solutions of IA2 and IA3 were used for the assaying. […] C2 contained 950 µL buffer and 50 µL solution of C1 (1:2000 dilution of original sample) and vial C3 was charged with 500 µL buffer and 500 µL solution from C2 (1: 4000 dilution of original sample). Only C2 and C3 were run in the assay. After all the reaction dilutions, these were then subjected to 96 wells plate. The wells were divided as: 2 blank wells, 2 NSB wells (non-specific binding), 3 B0 wells (maximum binding), one TA well (total activity), 16 wells for standards (S1–S8 in repeat), 2 BC1 and 2 BC2 wells. Compounds (inhibitors) were put in all the other wells. The sequence for the addition of reagents onto the plate was as per the protocol of the assay kit. […] For developing the plate; it was emptied and washed with wash buffer 5 times followed by the addition of 200 µL Ellman’s reagent to each well. 5 µL tracer was added to the TA well. Then the plate was covered and left for 60 mins for development in dark. After the respective time period the cover was removed and the plate was read at 420 nm. %B/Bo (i.e. % sample or maximum bound) value for standards S1-S8 and each sample was determined from the absorbance values obtained according to the calculation given in the protocol. The amount of prostaglandins formed during the enzymatic reaction was calculated from the values of %B/Bo for all the compounds at all concentrations with the help of the standard curve (plotted between %B/Bo of standards and raw data given in the protocol). Then the prostaglandin formed at each concentration of all the compounds and percentage inhibition values were calculated. The graph between percent inhibition of the enzyme and corresponding concentration of the compound provided IC50 values for the compounds.

T1 sequence (P23219 24-599): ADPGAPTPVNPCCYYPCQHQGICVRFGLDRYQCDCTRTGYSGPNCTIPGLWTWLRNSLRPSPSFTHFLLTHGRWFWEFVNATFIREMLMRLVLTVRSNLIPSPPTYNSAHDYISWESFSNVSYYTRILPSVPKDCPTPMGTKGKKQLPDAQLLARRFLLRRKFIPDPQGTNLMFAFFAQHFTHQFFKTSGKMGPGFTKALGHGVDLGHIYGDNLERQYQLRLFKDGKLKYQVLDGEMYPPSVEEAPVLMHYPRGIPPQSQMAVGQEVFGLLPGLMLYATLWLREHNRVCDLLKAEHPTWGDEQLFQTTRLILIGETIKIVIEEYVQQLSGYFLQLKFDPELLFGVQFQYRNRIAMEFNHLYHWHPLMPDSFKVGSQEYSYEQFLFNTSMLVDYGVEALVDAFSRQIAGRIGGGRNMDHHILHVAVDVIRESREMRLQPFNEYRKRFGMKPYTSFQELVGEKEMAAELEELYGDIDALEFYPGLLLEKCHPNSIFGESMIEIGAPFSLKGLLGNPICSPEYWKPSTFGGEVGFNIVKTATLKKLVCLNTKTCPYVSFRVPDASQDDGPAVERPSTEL

| SMILES | Production of TXB2, +Ca^2+ Ionophore (COX-1) | IC50 (COX-2) | Selectivity index (COX-2) |
| --- | --- | --- | --- |
| O=C1Nc2ccccc2C1=Cc1cn(C[C@H](O)Cn2c3ccccc3c(=O)c3ccccc32)c2ccccc12 [(S)-3c] | 1.80 ± 0.5 ng/mL | 800 ± 75 nM |  |
| O=C1NC(=O)C(=Cc2cn(CCCn3c4ccccc4c(=O)c4ccccc43)c3ccccc23)C(=O)N1 [Compound 4a] | 1.84 ± 0.11 ng/mL | 100 ± 60 nM | 300 |
| O=C1Nc2ccccc2C1=Cc1cn(CCCn2c3ccccc3c(=O)c3ccccc32)c2ccccc12 [Compound 4c] | 1.70 ± 0.3 ng/mL | 300 ± 15 nM | 13.33 |
